In US20120220603A1, “SUBSTITUTED HETEROCYCLIC DERIVATIVES FOR THE TREATMENT OF PAIN AND EPILEPSY” (ZALICUS PHARMACEUTICALS LTD., priority 2009, published 2012):

How the values were obtained:
[1] = tested on: seizures induced by 6 Hz corneal stimulation in CF1 mice; assay: 6 Hz psychomotor seizure model of partial epilepsy; type: in vivo, mouse; parameters: Epilepsy 6 Hz (% protected): concentration or dose not given beside the values; conditions: 32 mA; for ED50: Mus musculus
Description: Compounds were evaluated for the protection against seizures induced by a 6 Hz, 0.2 ms rectangular pulse width of 3 s duration, at a stimulus intensity of 32 mA (CC97) applied to the cornea of male CF1 mice (20-30 g) according to procedures described by Barton et al, “Pharmacological Characterization of the 6 Hz Psychomotor Seizure Model of Partial Epilepsy,” Epilepsy Res. 47(3):217-27 (2001). Seizures are characterised by the expression of one or more of the following behaviours: stun, forelimb clonus, twitching of the vibrissae and Straub-tail immediately following electrical stimulation.

[2] = tested on: mice on rotarod; assay: Mouse rotarod assay (minimal muscular or neurological impairment); type: in vivo
Description: (§1) To assess a compound's undesirable side effects (toxicity), animals were monitored for overt signs of impaired neurological or muscular function. In mice, the rotarod procedure (Dunham and Miya, J. Am. Pharmacol. Assoc. 46:208-209 (1957)) is used to disclose minimal muscular or neurological impairment (MMI). When a mouse is placed on a rod that rotates at a speed of 6 rpm, the animal can maintain its equilibrium for long periods of time. The animal is considered toxic if it falls off this rotating rod three times during a 1-min period.

[3] = as above; type: in vivo; conditions: mouse, in vivo, mice
Description: as §1

[4] = biological target: T1, CaV3.2 T-type Ca2+ channels expressed in HEK cells (Homo sapiens, UniProt O95180); assay: CaV3.2 voltage-clamp electrophysiological assay (fast and slow inactivation); type: cell-based
T1 construct: expressed in transfected cells; host or cells: HEK cells
Source text: Prior to recording currents from CaV3.2 T-type Ca^2+ channels expressed in HEK cells, the culture media was replaced with extracellular solution (ECS) containing (in mM): 142 CsCl, 10 D-glucose, 2 CaCl2, 1 MgCl2, 10 HEPES, pH adjusted to 7.4 with CsOH. Borosilicate glass patch pipettes, pulled on a P-97 micropipette puller (Sutter Instruments, Novato, Calif.) with typical resistances of 2-4 MW, were backfilled with intracellular solution containing (in mM): 126.5 Cs-methanesulphonate, 2 MgCl2, 10 HEPES, 11 EGTA, 2 Na-ATP, pH adjusted to 7.3 CsOH. […] were recorded in the whole-cell configuration at room temperature (˜21° C.) using an Axopatch 200B (Molecular Devices, Sunnyvale, Calif.) patch-clamp amplifier. Recordings were low-pass filtered at 1 kHz (−3 dB 4-pole Bessel filter), digitized at 2 kHz with a Digidata 1322A interface (Molecular Devices), and acquired using pClamp 9.2 (Molecular Devices). No leak subtraction was used. Test compounds, prepared as 30 mM stock solutions in DMSO and diluted in extracellular buffer, were applied through a gravity driven multi-barrelled array of capillaries (24 gauge) connected to reservoirs controlled by solenoid valves. The effects of compounds on CaV3.2 slow and fast inactivation were evaluated using four different voltage protocols. The voltage dependence of fast and slow channel inactivation was examined using a two pulse protocol. Data were analyzed and fitted using OriginPro v.7.5 (OriginLab, Northampton, Mass.) software.

T1 sequence (O95180 whole entry): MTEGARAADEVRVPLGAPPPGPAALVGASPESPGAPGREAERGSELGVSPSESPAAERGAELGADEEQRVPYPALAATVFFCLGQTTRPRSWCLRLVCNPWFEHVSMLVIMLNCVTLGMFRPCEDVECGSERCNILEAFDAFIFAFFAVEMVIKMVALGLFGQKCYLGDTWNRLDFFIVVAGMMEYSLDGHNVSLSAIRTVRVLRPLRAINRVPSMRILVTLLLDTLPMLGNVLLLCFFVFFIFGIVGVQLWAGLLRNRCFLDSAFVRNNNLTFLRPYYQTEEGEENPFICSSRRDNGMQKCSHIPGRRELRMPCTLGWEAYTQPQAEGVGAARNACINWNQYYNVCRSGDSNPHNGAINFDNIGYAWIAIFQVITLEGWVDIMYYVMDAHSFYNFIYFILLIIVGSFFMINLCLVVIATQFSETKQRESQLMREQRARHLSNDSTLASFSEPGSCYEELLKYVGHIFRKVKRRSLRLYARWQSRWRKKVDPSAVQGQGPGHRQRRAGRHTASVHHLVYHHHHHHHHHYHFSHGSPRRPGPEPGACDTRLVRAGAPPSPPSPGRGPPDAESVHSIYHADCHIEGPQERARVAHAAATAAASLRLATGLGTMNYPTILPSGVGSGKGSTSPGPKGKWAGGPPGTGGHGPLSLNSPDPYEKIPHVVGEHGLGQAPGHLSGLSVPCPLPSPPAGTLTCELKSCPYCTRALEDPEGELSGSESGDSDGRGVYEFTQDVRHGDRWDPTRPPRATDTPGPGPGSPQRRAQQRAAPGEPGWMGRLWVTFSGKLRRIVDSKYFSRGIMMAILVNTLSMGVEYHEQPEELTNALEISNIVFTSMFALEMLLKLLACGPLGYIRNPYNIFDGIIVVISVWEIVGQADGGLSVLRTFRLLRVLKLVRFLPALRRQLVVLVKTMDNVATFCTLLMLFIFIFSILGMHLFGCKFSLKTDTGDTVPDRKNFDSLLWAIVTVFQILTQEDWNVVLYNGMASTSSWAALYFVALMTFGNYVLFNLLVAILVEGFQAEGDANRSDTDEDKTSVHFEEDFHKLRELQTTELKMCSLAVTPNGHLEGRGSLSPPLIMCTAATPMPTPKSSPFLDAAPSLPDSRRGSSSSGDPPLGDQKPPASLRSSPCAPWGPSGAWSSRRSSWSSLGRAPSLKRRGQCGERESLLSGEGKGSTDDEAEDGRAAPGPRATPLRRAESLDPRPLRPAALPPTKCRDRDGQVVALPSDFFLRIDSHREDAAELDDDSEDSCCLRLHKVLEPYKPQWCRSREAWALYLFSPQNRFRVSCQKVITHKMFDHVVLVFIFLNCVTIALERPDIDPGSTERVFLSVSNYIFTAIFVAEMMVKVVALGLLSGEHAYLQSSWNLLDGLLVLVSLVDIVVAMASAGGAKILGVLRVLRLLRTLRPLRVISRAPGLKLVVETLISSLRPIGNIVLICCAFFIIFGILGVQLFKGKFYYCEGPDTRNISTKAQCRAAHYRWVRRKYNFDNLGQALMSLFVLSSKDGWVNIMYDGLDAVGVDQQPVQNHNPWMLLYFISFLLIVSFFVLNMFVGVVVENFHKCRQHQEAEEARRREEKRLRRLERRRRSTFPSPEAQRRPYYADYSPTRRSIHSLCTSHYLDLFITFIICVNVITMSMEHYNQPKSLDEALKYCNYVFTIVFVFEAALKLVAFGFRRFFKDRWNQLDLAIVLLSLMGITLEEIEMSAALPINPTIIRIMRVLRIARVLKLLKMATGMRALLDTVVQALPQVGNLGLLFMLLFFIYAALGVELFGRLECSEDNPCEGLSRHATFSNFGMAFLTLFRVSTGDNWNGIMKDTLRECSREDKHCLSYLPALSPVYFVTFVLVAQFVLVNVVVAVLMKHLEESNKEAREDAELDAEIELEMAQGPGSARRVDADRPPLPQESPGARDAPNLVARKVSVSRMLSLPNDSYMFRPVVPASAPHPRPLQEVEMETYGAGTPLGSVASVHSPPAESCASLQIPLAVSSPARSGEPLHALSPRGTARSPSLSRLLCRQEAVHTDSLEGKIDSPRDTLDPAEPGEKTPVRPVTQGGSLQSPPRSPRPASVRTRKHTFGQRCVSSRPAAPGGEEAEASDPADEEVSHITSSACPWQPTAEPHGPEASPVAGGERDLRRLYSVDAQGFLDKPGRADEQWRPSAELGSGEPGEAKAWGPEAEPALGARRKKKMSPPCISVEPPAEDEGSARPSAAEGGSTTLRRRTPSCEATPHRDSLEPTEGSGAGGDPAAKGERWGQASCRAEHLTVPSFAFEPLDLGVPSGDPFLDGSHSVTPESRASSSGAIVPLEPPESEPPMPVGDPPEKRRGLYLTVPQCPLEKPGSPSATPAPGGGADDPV

SMILES	Epilepsy 6 Hz (% protected) ([1]; 0.25 hr)	Epilepsy 6 Hz (% protected) ([1]; 0.5 hr)	Epilepsy 6 Hz (% protected) ([1]; 1 hr)	ED50 [1]	% Impaired ([2]; 0.25 hr)	% Impaired ([2]; 0.5 hr)	% Impaired ([2]; 1 hr)	% Impaired ([2]; 2 hr)	% Impaired ([2]; 4 hr)	TD50 [3]	Epilepsy 6 Hz (% protected) ([1]; 2 hr)	Epilepsy 6 Hz (% protected) ([1]; 4 hr)	Fraction of current recovered at 5.1 s interval ([4]; 5.1 s interval)	Fraction current remaining at −40 mV ([4]; at −40 mV)	V1/2 slow inactivation ([4]; voltage-dependence of half inactivation, HEK cells, whole-cell)
O=C(CN1CCNCC1=O)Nc1cc(C(F)(F)F)cc(C(F)(F)F)c1 [Compound 1, N-(3,5-bis(trifluoromethyl)phenyl)-2-(2-oxopiperazin-1-yl)acetamide]	75%	100%	75%	128 mg/kg	0%	0%	0%	0%	0%	300 mg/kg	–	–	–	–	–
O=C1CN(CC(=O)Nc2cc(C(F)(F)F)cc(C(F)(F)F)c2)CCN1 [Compound 9, N-(3,5-bis(trifluoromethyl)phenyl)-2-(3-oxopiperazin-1-yl)acetamide]	75%	25%	88%	90 mg/kg	0%	0%	0%	0%	0%	–	75%	0%	*0.80	**0.32	**−83 mV
